Results: paper PMC12337661, “PIEZO1 mechanical insensitivity in generalized lymphatic dysplasia with the potential for pharmacological rescue” (iScience, 2025)

Key:
[1] = system: T-REx-293 cells, empty vector (vector control); experiment: Intracellular Ca2+ measurement (fura-2), T-REx-293 cells transiently transfected with empty vector; type: cell-based; settings: 1 μM
Experimental: (§1) HEK 293 cell line was transiently transfected at 90% confluence using Lipofectamine 2000 (Invitrogen) in OptiMEM (Gibco). Briefly: 500 ng endotoxin-free DNA per 100μL OptiMEM was prepared alongside 3μL Lipofectamine 2000 per 100μL OptiMEM (Gibco). Both were incubated for 5 min and then mixed, and then incubated at room temperature (21°C–24°C) for 20–30 min. Finally, the transfection mix was gently added dropwise to the cells and the cells were placed in a humidified incubator at 37°C supplied with 5% CO2 for 5 h. Medium was replaced afterward, and cells were used for experimentation 48 h after transfection.
(§2) For intracellular Ca^2+ assays, cells were plated at 80–90% confluence in 96-well plates 24 h prior to recordings (6–8 × 10^4 cells per well). […] Cells were washed with SBS and incubated at room temperature for 20 min prior to recordings. Equal volumes of 2x concentrated compounds were injected to test for acute channel activation. Pre-incubation with compounds occurred during the 20 min prior to recordings. To expose cell membranes to hypo-osmolality, an equal volume of hypotonic SBS (containing only 35 mM NaCl) was injected onto the cells. Measurements were made on a fluorescence plate reader (Flexstation III, Molecular Devices) at room temperature (21 ± 2°C). Fura-2 was excited at 340 nm and 380 nm and emitted light collected at 510 nm, with measurements shown as the change in fluorescence (F) ratio (ΔF340/380).
(§3) KC41 (Dooku1) was prepared as described.[28] All purchased chemicals and solvents were used without further purification unless otherwise stated. All compounds were at least 95% pure by 1H NMR. 1H Nuclear Magnetic Resonance spectra were recorded at 500 MHz using a Bruker DRX 500 instrument or at 400 MHz using a Bruker DPX 400. 1H spectra are referenced based on the residual proton in the solvent (e.g., the CHCl3, 0.01% in 99.99% CDCl3). Coupling constants (J) are reported to the nearest 0.1 Hz. 13C NMR spectra were recorded at 125 MHz on 500 MHz spectrometers or at 100 MHz on 400 MHz spectrometers. LC-MS was performed on a Bruker Daltronics running a gradient of increasing acetonitrile (5–95%) in H2O both containing 0.1% formic acid at 1 mL.min^−1, on a short path C18 reverse phase column, detecting compounds with both a diode array detector and a Bruker mass spectrum analyser. HRMS was performed on a Bruker Daltonics micrOTOF using positive electrospray ionisation (ES+). Automated column chromatograph was carried out using a Biotage Isolera Four, using either Sfär Silica D or KP-Silica cartridges. HPLC was performed on an Agilent 1290 Infinity Series equipped with a UV detector and Hyperprep C18 reverse phase column. Key to NMR abbreviations: s (singlet), br s (broad singlet) d (doublet), dd (doublet of doublets), ddd (doublet of doublets of doublets), t (triplet), dt (doublet of triples), q (quartet), m (multiplet), ap. t (apparent triplet). For experiments, Yoda1 and its analogues were prepared as 10 mM stock solutions in 100% dimethyl sulfoxide (DMSO) before serial dilution in DMSO and final dilution in aqueous solution. Cells were exposed to 0.1% DMSO for all concentrations of the compounds from 0 to 10 μM.

E829V hPIEZO1 = molecular target: T1, E829V hPIEZO1 (Homo sapiens, UniProt Q92508, E829V); experiment: Intracellular Ca2+ measurement (fura-2), T-REx-293 cells transiently transfected; type: cell-based; settings: 1 μM Y1, versus WT
T1 construct: expressed in transfected cells; host or cells: T-REx-293 (modified HEK293), transient
Experimental: as §1, §2, §3

R2335Q hPIEZO1 = molecular target: T2, R2335Q hPIEZO1 (Homo sapiens, UniProt Q92508, R2335Q); experiment: as above; type: cell-based; settings: 1 μM Y1, versus WT
T2 construct: expressed in transfected cells; host or cells: T-REx-293 (modified HEK293), transient
Experimental: as §1, §2, §3

G1978D hPIEZO1 = molecular target: T3, G1978D hPIEZO1 (Homo sapiens, UniProt Q92508, G1978D); experiment: as above; type: cell-based; settings: 1 μM Y1, versus WT
T3 construct: expressed in transfected cells; host or cells: T-REx-293 (modified HEK293), transient
Experimental: as §1, §2, §3

WT hPIEZO1 = molecular target: T4, WT hPIEZO1 (Homo sapiens, UniProt Q92508); experiment: as above; type: cell-based; settings: 1 μM
T4 construct: expressed in transfected cells; host or cells: T-REx-293 (modified HEK293), transient
Experimental: as §1, §2, §3

mice = settings: cited from earlier work

T4 sequence (Q92508 whole entry): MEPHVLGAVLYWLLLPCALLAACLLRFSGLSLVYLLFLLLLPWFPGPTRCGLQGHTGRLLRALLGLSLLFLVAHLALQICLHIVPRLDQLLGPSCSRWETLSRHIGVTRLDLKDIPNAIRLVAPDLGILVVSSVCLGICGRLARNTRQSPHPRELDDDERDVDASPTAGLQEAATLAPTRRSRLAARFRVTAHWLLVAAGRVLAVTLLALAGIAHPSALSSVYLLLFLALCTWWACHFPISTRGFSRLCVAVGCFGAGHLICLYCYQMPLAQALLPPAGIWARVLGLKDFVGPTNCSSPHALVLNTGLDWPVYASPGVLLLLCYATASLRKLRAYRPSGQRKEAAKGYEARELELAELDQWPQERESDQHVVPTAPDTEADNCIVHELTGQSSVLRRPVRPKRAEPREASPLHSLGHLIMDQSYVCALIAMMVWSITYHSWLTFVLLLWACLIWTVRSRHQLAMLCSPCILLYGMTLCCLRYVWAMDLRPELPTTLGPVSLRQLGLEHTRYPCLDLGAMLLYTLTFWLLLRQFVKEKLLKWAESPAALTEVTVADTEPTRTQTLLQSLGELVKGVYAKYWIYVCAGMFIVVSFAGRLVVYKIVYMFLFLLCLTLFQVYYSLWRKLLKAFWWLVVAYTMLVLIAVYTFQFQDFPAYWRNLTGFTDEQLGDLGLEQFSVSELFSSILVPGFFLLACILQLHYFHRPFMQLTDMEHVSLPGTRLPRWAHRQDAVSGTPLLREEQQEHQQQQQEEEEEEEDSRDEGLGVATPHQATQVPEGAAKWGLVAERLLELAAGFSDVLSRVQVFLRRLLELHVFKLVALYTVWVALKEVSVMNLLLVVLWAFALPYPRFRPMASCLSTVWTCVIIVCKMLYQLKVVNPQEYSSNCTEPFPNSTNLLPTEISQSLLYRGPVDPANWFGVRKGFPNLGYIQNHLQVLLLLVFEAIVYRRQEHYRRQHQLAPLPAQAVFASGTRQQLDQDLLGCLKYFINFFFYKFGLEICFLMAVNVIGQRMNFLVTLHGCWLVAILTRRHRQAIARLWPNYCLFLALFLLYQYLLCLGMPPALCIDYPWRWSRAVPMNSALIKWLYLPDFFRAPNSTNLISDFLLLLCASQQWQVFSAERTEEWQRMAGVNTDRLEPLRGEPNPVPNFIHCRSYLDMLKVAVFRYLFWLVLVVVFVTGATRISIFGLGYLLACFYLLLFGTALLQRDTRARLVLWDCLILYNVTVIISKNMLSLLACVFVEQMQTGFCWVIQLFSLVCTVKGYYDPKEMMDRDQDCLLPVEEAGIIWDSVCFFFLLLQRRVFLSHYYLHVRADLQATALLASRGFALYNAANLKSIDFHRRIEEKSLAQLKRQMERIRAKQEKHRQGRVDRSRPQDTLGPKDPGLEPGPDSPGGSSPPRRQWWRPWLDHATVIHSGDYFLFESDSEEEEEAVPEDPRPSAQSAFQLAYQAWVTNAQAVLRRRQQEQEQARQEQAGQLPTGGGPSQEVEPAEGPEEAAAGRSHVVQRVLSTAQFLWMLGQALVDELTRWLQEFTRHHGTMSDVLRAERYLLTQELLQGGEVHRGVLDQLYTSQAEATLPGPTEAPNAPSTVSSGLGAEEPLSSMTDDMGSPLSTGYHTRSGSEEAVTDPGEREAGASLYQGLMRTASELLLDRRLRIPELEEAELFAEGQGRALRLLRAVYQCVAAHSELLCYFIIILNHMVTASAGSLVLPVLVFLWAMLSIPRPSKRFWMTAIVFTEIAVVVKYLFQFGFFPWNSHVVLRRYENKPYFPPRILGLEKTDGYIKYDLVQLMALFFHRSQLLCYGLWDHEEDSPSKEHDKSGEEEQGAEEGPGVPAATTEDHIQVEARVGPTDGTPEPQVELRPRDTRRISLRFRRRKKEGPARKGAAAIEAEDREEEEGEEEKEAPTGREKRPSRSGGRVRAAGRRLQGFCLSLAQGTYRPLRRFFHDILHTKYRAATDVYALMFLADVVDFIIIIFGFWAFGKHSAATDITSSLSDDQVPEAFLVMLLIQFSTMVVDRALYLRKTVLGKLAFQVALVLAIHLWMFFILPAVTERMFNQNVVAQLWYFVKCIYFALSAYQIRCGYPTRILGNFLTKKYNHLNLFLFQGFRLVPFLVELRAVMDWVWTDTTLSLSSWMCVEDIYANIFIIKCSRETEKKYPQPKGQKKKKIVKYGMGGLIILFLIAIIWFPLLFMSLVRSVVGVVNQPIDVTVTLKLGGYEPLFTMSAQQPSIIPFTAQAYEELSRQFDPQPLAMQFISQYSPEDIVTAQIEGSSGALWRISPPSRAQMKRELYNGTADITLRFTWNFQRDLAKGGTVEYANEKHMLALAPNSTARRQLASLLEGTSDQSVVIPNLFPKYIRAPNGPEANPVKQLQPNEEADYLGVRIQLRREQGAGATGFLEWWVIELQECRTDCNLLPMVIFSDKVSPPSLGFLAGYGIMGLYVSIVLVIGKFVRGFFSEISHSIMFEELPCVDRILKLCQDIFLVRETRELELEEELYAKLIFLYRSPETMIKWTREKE
T3 sequence (Q92508 whole entry G1978D): as the sequence (Q92508 whole entry) above, with G1978D counted along it
T1 sequence (Q92508 whole entry E829V): as the sequence (Q92508 whole entry) above, with E829V counted along it
T2 sequence (Q92508 whole entry R2335Q): as the sequence (Q92508 whole entry) above, with R2335Q counted along it

Effect on hPIEZO1 channel function (E829V hPIEZO1): reduced 1 μM Y1 effect
Effect on hPIEZO1 channel function (R2335Q hPIEZO1): reduced 1 μM Y1 effect
Effect on hPIEZO1 channel function (G1978D hPIEZO1): reduced 1 μM Y1 effect
fluorescence (ΔFratio) (WT hPIEZO1; time 0 s): -0.01302
fluorescence (ΔFratio) (WT hPIEZO1; time 5 s): -0.00371
fluorescence (ΔFratio) (WT hPIEZO1; time 10 s): 0.00261
fluorescence (ΔFratio) (WT hPIEZO1; time 15 s): 0.01821
fluorescence (ΔFratio) (WT hPIEZO1; time 20 s): -9.97E-05
fluorescence (ΔFratio) (WT hPIEZO1; time 25 s): -0.004
fluorescence (ΔFratio) (WT hPIEZO1; time 30 s): -0.05053
fluorescence (ΔFratio) (WT hPIEZO1; time 35 s): 0.02247
fluorescence (ΔFratio) (WT hPIEZO1; time 40 s): 0.1718
fluorescence (ΔFratio) (WT hPIEZO1; time 45 s): 0.1972
fluorescence (ΔFratio) (WT hPIEZO1; time 50 s): 0.2136
fluorescence (ΔFratio) (WT hPIEZO1; time 55 s): 0.2004
fluorescence (ΔFratio) (WT hPIEZO1; time 60 s): 0.1986
fluorescence (ΔFratio) (WT hPIEZO1; time 65 s): 0.1996
fluorescence (ΔFratio) (WT hPIEZO1; time 70 s): 0.1871
fluorescence (ΔFratio) (WT hPIEZO1; time 75 s): 0.1803
fluorescence (ΔFratio) (WT hPIEZO1; time 80 s): 0.1839
fluorescence (ΔFratio) (WT hPIEZO1; time 85 s): 0.1791
fluorescence (ΔFratio) (WT hPIEZO1; time 90 s): 0.1817
fluorescence (ΔFratio) (WT hPIEZO1; time 95 s): 0.1659
fluorescence (ΔFratio) (WT hPIEZO1; time 100 s): 0.1565
fluorescence (ΔFratio) (WT hPIEZO1; time 105 s): 0.1608
fluorescence (ΔFratio) (WT hPIEZO1; time 110 s): 0.1552
fluorescence (ΔFratio) (WT hPIEZO1; time 115 s): 0.1355
fluorescence (ΔFratio) (WT hPIEZO1; time 120 s): 0.1385
fluorescence (ΔFratio) (WT hPIEZO1; time 125 s): 0.172
Structure (SMILES): Clc1cccc(Cl)c1CSc1nnc(-c2cnccn2)s1 [Yoda1]
fluorescence (ΔFratio) ([1]; time 0 s): 0.00237
fluorescence (ΔFratio) ([1]; time 5 s): -0.00988
fluorescence (ΔFratio) ([1]; time 10 s): 0.01607
fluorescence (ΔFratio) ([1]; time 15 s): 0.00395
fluorescence (ΔFratio) ([1]; time 20 s): -3.91E-04
fluorescence (ΔFratio) ([1]; time 25 s): -0.01211
fluorescence (ΔFratio) ([1]; time 30 s): -0.08353
fluorescence (ΔFratio) ([1]; time 35 s): 0.00717
fluorescence (ΔFratio) ([1]; time 40 s): 0.03324
fluorescence (ΔFratio) ([1]; time 45 s): 0.05289
fluorescence (ΔFratio) ([1]; time 50 s): 0.03768
fluorescence (ΔFratio) ([1]; time 55 s): 0.03322
fluorescence (ΔFratio) ([1]; time 60 s): 0.03103
fluorescence (ΔFratio) ([1]; time 65 s): 0.02272
fluorescence (ΔFratio) ([1]; time 70 s): 0.00255
fluorescence (ΔFratio) ([1]; time 75 s): 0.00791
fluorescence (ΔFratio) ([1]; time 80 s): -0.00287
fluorescence (ΔFratio) ([1]; time 85 s): 0.01077
fluorescence (ΔFratio) ([1]; time 90 s): -0.01792
fluorescence (ΔFratio) ([1]; time 95 s): -0.01119
fluorescence (ΔFratio) ([1]; time 100 s): 0.01819
fluorescence (ΔFratio) ([1]; time 105 s): 8.16E-04
fluorescence (ΔFratio) ([1]; time 110 s): 0.00558
fluorescence (ΔFratio) ([1]; time 115 s): 0.00369
fluorescence (ΔFratio) ([1]; time 120 s): 7.66E-04
fluorescence (ΔFratio) ([1]; time 125 s): 0.00667
lymphatic valve formation (mice; WT mice): accelerated lymphatic valve formation
adverse effects of injection (mice; mice injected): mostly not been adversely affected
effect on edemas (mice; mice): reduce peripheral and central edemas
meningeal lymphatic network function (mice; mice): restored meningeal lymphatic network function
postsurgical lymphedema (mice; mice): suppressed postsurgical lymphedema
cerebrospinal fluid accumulation and ventricular enlargement (mice; mouse models of Down syndrome): decreased pathological cerebrospinal fluid accumulation and ventricular enlargement
